Assay results: patent US20240139162A1, “Benzophenanthridine Alkaloids and Their Methods of Use” (Chengdu Anticancer Bioscience, LTD., priority 2019, published 2024)
“And” between values parts separate entries of the source, which are not always exact repeats. Equal entries are not always repeated. “Also recorded” adds a separate entry of the source. Where two headings read alike, the source gives them in different places.

How the values were obtained:
RPE-MBC cells [1] = assay: Mitotic arrest (cell round-up, phospho-Histone H3) and polyploidy (DAPI) assay; type: cell-based, human; conditions: for mitotic arrest: 24 hours after treatment; for polyploidy (DAPI staining): 48 hours after treatment; for persistence of the arrest of cells in mitosis: within 48-hour treatment
Method: (§1) For screening for bioactive fractions, cells were cultured in 96-well plates, and exposed to crude extracts, partially purified fractions or pure compounds at the concentrations indicated in the figure legends. Exposure was for 24 or 48 hours before analysis of cells for either an arrest in mitosis using an inverted microscope or for a change in DNA content after 4′,6′-diamidino-2-phenylindole (DAPI) staining by fluorescence microscopy.
(§2) Cells were cultured on coverslips in a 6-well plate, fixed with 4% paraformaldehyde and then permeabilized with 0.3% Triton X-100 in PBS. Primary antibody was detected with Texas-Red-conjugated secondary antibodies that were purchased from Jackson ImmunoResearch. After immunostaining, cells were mounted on microscope slides with 4′,6′-diamidino-2-phenylindole (DAPI)-containing Vectashield mounting solution (Vector Laboratories) for detection of fluorescence with an EVOS FL fluorescence microscope (ThermoFisher).
Cellular “round-up” was used as a surrogate marker for mitotic arrest and could easily be assayed using an inverted tissue culture microscope. […] Mitotic arrest was judged by cell round-up observed under an inverted tissue culture microscope 24 hours after exposing cells to the library.
As cells enter and become arrested in mitosis, they detach from the plate surface and appear as rounded cells with smooth surface membrane, distinct from detached cells that are undergoing programmed cell death. Simple visual screening method was used to assay thousands of extracts. […] To identify bioactive components that are able to interfere with mitosis, 3 kg of Corydalis longicalcarata rhizome were recollected and performed bioactivity-guided extraction, isolation, and purification. The air dried and powdered material was extracted with 70% ethanol assisted by exposure to ultrasonic waves.

IMR 90 cells = assay: IC50 in IMR 90 cells (Table 2); type: cell-based; conditions: Homo sapiens, IMR-90, 72 h
Method: (§3) Cells were split, plated in appropriate culture media and allowed to adhere. After 18 hours, corynoline and acetylcorynoline were added to a cell line selected from below. At 72 h or 96 h, MTT was added and at 75 h or 99 h, the A570 nm was recorded. The concentration ranged from 0.02 μM to 40 μM.
(§4) The effect of the compounds chelidonine and protopine on cell division was assessed similarly to corynoline and acetylcorynoline above. As described in Example 6 above, as cells enter and become arrested in mitosis, they detach from the plate surface and appear as rounded cells with a smooth surface membrane. RPE-MBC cells (ectopically expressing oncogenes MYC and Bcl2) were treated with DMSO, chelidonine and protopine, and compared against controls Michael's ketone (MK) and taxol.

3T3 MEF cells = assay: IC50 in 3T3 MEF cells (Table 2); type: cell-based
Method: as §3, §4

[2] = test system: all tested cell lines (RPE, Rat1A and human cancer cell lines); assay: MTT assay, IC50 across all of the cell lines tested; type: cell-based; conditions: for IC50: Homo sapiens
RPE-A19 cells = assay: IC50 in RPE-A19 cells (Table 2); type: cell-based, human
Method: as §3, §4

RPE-MBC cells [3] = assay: IC50 in RPE-MBC cells (Table 1); type: cell-based, human
Method: as §1, with “Retinal pigment epithelial cells transformed by ectopic MYC and Bcl-2 expression (RPE-MBC cells) have been described previously (e.g., Goga et al., 2007, Nat. Med., 13 (7):820-827) and were cultured in DMEM supplemented with 5% fetal bovine serum in a humidified incubator that was maintained at 5% CO2. For” for “For”
The RPE series were derived from human retinal pigment epithelium and then stably transfected with a hTERT expression construct for immortalization. The resulting cell line was then engineered to overexpress the MYC and BCL2 oncogenes, generating the RPE MBC cell line. This cell line mimics cancer cells that overexpress MYC and Bcl2, and readily forms viable polyploid cells when cytokinesis is prevented.
as §3, §4

RPE-MBH cells = assay: IC50 in RPE-MBH cells (Table 1); type: cell-based, human
Method: as §3
(§5) The following RPE cell lines were used in these studies: RPE NEO, RPE MBH, RPE MBC, RPE MA, RPE MP, RPE MI, and RPE MYC Nick. This RPE series were derived from human retinal pigment epithelium and then stably transfected with an hTERT expression construct for immortalization. The resulting cell line was then engineered to overexpress the MYC oncogene (RPE-MYC) or a Neomycin selection marker gene (RPE-NEO). In RPE-MYC cells, a variety of other oncogenes such as Myr-AKT, BCL2, ID1 and PI3K^E45k were further introduced individually to generate the cell lines RPE MA, RPE MBC, RPE MI, RPE MP, respectively. As a control, H2BGFP was introduced into RPE-MYC cells to generate RPE MBH.
as §4

[4] = test system: all tested cell lines (RPE, Rat1A and human cancer cell lines); conditions: positive control, read-out: known IC50 value; cited from earlier work
Rat1A cells = assay: IC50 in Rat1A cells (Table 2); type: cell-based
Method: as §3
(§6) The following Rat1A cell lines were used in these studies: Rat1 A C, Rat1A MYC, Rat1A E2F1, and Rat1A E2F3. The cell line was then engineered as control (C), to overexpress the MYC oncogene (Rat1A-MYC), to overexpress the E2F1 oncogene (Rat1A-E2F1), or to overexpress the E2F3 oncogene (Rat1A-E2F3).
as §4

RPE MBC cells = assay: Spindle pole assembly by β-tubulin / Histone H3ser10P immunofluorescence; type: cell-based, human
Method: Microtubule assembly, specifically spindle pole assembly, was altered by treatment with acetylcorynoline. RPE MBC cells were treated with acetylcorynoline and Histone H3 Serine 10 Phosphorylation (Histone H3ser10p, shown in FIG. 4 and FIG. 5 in red), β-tubulin (green) and DNA (blue) was analyzed by immunofluorescence microscopy. Histone H3ser10P was used to determine the cells that were in early mitosis (e.g., prometaphase or metaphase). β-tubulin was used to examine microtubule localization and spindle assembly within the cells.
Similarly to corynoline and acetylcorynoline above, it was determined that microtubule assembly, specifically spindle pole assembly, was altered by treatment with chelidonine.

RPE-Neo cells = assay: IC50 in RPE-Neo cells (Table 2); type: cell-based, human
Method: as §3, §5, §4

[5] = test system: Rat1A cell lines (Rat1A C, Rat1A MYC, Rat1A E2F1, Rat1A E2F3); assay: MTT assay, Rat1A cell lines expressing oncogenes; type: cell-based; conditions: Rat1A cell lines compared to Rat1A C (FIG. 12)
Method: as §3, §6

[6] = test system: RPE cell lines (RPE NEO, RPE MBH, RPE MBC, RPE MA, RPE MP, RPE MI, RPE MYC Nick); assay: MTT assay, RPE cell lines expressing oncogenes; type: cell-based, human; conditions: RPE cell lines compared with RPE NEO control (FIG. 11)
aurora-B kinase = assay: Phosphorylation of Histone 3 at Ser10 as surrogate of aurora-B kinase activity; type: cell-based
Method: as §2

[7] = 3T3 MEF, treatment 72 h, read-out: IC50
[8] = RPE-A19, treatment 72 h, read-out: IC50
[9] = RPE-MBH, treatment 72 h, read-out: IC50

| Structure (SMILES) | mitotic arrest (RPE-MBC cells [1]) | polyploidy (DAPI staining) (RPE-MBC cells [1]) | persistence of the arrest of cells in mitosis (RPE-MBC cells [1]) | IC50 (3T3 MEF cells; [7]) | IC50 (RPE-A19 cells; [8]) | IC50 (RPE-MBH cells; [9]) | IC50 (IMR 90 cells) [µM] | IC50 (Rat1A cells; 72 h) [µM] | IC50 (3T3 MEF cells; Mus musculus, MEF, 72 h) [µM] | IC50 (RPE-A19 cells; Homo sapiens, 72 h) [µM] | IC50 (RPE-MBC cells [3]; Homo sapiens, 72 h) [µM] | IC50 (RPE-MBH cells; Homo sapiens, 72 h) [µM] | IC50 (RPE-Neo cells; Homo sapiens, 72 h) [µM] | also measured |
| --- | --- | --- | --- | --- | --- | --- | --- | --- | --- | --- | --- | --- | --- | --- |
| CN1CCc2cc3c(cc2C(=O)Cc2ccc4c(c2C1)OCO4)OCO3 [protopine, 7-Methyl-6,8,9,16-tetrahydrobis[1,3]benzodioxolo[4,5-c:5′,6′-g]azecin-15(7H)-one] | Nearly all cells entered and arrested in mitosis | Polyploidy was observed | transient | – | – | – | – | – | – | – | – | – | – | – |
| CC(=O)O[C@H]1C(=O)[C@@]2(C)[C@H]([C@H](OC(=O)c3ccccc3)[C@]3(O)C[C@H](OC(=O)[C@H](O)[C@@H](NC(=O)c4ccccc4)c4ccccc4)C(C)=C1C3(C)C)[C@]1(OC(C)=O)CO[C@@H]1C[C@@H]2O [Taxol, paclitaxel] | – | without causing accumulation of polyploid cells | persistent arrest of cells in mitosis | 0.062 µM and 0.096 µM | 15.7 µM and 13 µM | 22.1 µM and 22.7 µM | – | – | – | – | – | – | – | IC50 (IMR 90 cells; IMR 90, treatment 72 h, read-out: IC50): 6.98 µM; IC50 (3T3 MEF cells; Mus musculus, MEF, 72 h, 3T3 MEF, treatment 72 h, read-out: IC50): 0.075 µM; IC50 ([2]; across all of the cell lines tested (FIG. 9), MTT at 72 h or 96 h, read-out: IC50): < 0.02 µM; IC50 (RPE-A19 cells; Homo sapiens, 72 h, RPE-A19, treatment 72 h, read-out: IC50): 13.4 µM; IC50 (RPE-MBC cells [3]; Homo sapiens, RPE-MBC, treatment 72 h, read-out: IC50): > 40 µM; IC50 (RPE-MBH cells; Homo sapiens, 72 h, RPE-MBH, treatment 72 h, read-out: IC50): 31.4 µM; IC50 [4]: < 0.02 µM |
| CN1Cc2c(ccc3c2OCO3)[C@@H]2[C@H]1c1cc3c(cc1C[C@@H]2O)OCO3 [Chelidonine, 5bR,6S,7,12bS,13,14-hexahydro-13-methyl-[1,3]benzodioxolo[5,6-c]-1,3-dioxolo[4,5-i]phenanthridin-6-ol] | Nearly all cells entered and arrested in mitosis | polyploidy was observed; also recorded: demonstrates polyploidy | transient | – | – | – | 2.43 | 1.11 | 1.52 | 1.85 | > 40 | 2.32 | 1.11 | spindle formation (β-tubulin staining) (RPE MBC cells; 24 hours of treatment): multipolar spindles were formed; also recorded: multipolar spindle formation in mitosis; centrosomes (β-tubulin staining) (RPE MBC cells; analyzed after 24 or 48 hours): centrosome amplification and centrosome declustering |
| CC[C@]1(O)C[C@@H]2CN(CCc3c([nH]c4ccccc34)[C@@](C(=O)OC)(c3cc4c(cc3OC)N(C)[C@H]3[C@@](O)(C(=O)OC)[C@H](OC(C)=O)[C@]5(CC)C=CCN6CC[C@]43[C@@H]65)C2)C1 [vinblastine, reference compound] | – | without causing accumulation of polyploid cells | persistent arrest of cells in mitosis | – | – | – | – | – | – | – | – | – | – | – |
| CN1Cc2c(ccc3c2OCO3)[C@@]2(C)[C@@H](O)Cc3cc4c(cc3[C@@H]12)OCO4 [Corynoline, (5bR)-5bα,13-Dimethyl-5bα,6,7,12bα,13,14-hexahydro[1,3]benzodioxolo[5,6-c]-1,3-dioxolo[4,5-i]phenanthridine-6β-ol] | can arrest mitosis within 24 hours of treatment | induce polyploidy at 48 hours | transient | – | – | – | > 40 | 8.61 | 12.2 | 10.6 | 8.87 | 15.1 | 7.06 | change of IC50 after overexpression of oncogenes [5]: increased in the Rat1 A MYC cell line; IC50 [2]: 1 to 31 µM; IC50 compared with the other compound ([2]; all different cell lines): lower than acetylcorynoline; change of IC50 after overexpression of oncogenic factors [6]: all declined, with the exception of RPE MA; phosphorylation of Histone 3 at Ser10 (aurora-B kinase): not affected; mitotic arrest (RPE-MBC cells [1]; listed as corynoline): Nearly all cells entered and arrested in mitosis; polyploidy (DAPI staining) (RPE-MBC cells [1]; listed as corynoline): Polyploidy was observed; also recorded: demonstrates polyploidy; mitotic arrest and polyploidy, dependence on concentration (RPE-MBC cells [1]; FIG. 15): concentration-dependent |
| CN(C)c1ccc(C(=O)c2ccc(N(C)C)cc2)cc1 [MK, Michael's ketone, reference compound] | – | – | – | 3.48 µM | 0.087 µM | 0.303 µM | – | – | – | – | – | – | – | IC50 (Rat1A cells; Rat1A, treatment 72 h, read-out: IC50): 1.65 µM; IC50 (RPE-MBC cells [3]; RPE-MBC, treatment 72 h, read-out: IC50): 0.207 µM; IC50 (RPE-Neo cells; RPE-Neo, treatment 72 h, read-out: IC50): 0.805 µM |
